According to PubChem BioAssay AID1794803 (Yongcheng Song lab at Baylor College of Medicine, 2022):
Activity calls are given as the source filed them.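 The calls were made as follows: active = EC50 under 50 µM in a live-cell viability test; inactive = the rest.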

Test system: NB4 APL cells, proliferation, XTT absorbance
Experiment: growth inhibition of NB4 leukemia cells, dose response, AHD inhibitor project, cell-based, XTT viability (AID 1794803)

SMILES | EC50
O=C(NCC1CCNCC1)c1cc2cc(-c3cn[nH]c3)ccc2[nH]1 | > 51 µM (inactive)
O=C(NCC1CCNCC1)c1cc2ccc(-c3ccc(N4CCCC4)cc3)cc2s1 | 10 µM
O=C(NCC1CCNCC1)c1cc2ccc(-c3ccc(N4CCCCC4)cc3)cc2s1 | 5.3 µM
O=C(NCC1CCNCC1)c1c[nH]c2cc(-c3ccc(N4CCCC4)cc3)ccc12 | 50 µM
O=C(NCC1CCNCC1)c1cc2cc(-c3ccc(N4CCCCC4)cc3)ccc2[nH]1 | > 51 µM (inactive)
O=C(NCC1CCNCC1)c1cc2cc(-c3ccc(N4CCCCC4)cc3)ccc2s1 | 9.4 µM

The next lines start with the values.

EC50 | SMILES
32 µM | O=C(NCC1CCNCC1)c1c[nH]c2cc(-c3ccc(N4CCCCC4)cc3)ccc12
> 51 µM (inactive) | NCc1ccc(-c2ccc3cc(C(=O)NCC4CCNCC4)oc3c2)cc1
11 µM | O=C(NCC1CCNCC1)c1coc2cc(-c3ccc(N4CCCCC4)cc3)ccc12
> 51 µM (inactive) | NC(=O)c1ccc(-c2ccc3cc(C(=O)NCC4CCNCC4)sc3c2)cc1
